# Measurements from the supplement of paper PMC4862054.
# What was measured:
# Details in all cases: incubation time: 72 h
# [1] = system: MDA-MB-231; assay: normalised response (% of control), CellTox Green; higher = less cell death (100 = DMSO, 0 = benzethonium chloride kill control)
# Outline: (§1)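 Values are normalised signals, each belonging to one concentration of the series. Breast cancer cells (20 µl suspension) were seeded into 384-well plates with compound at 5 concentrations in 10-fold steps over a compound-specific 10,000-fold range and incubated 72 h. Readouts were CellTox Green fluorescence (485/520 nm), then CellTiter-Glo luminescence after 10 min at room temperature, with each plate set to 0.1 % DMSO as 100 and a positive kill control as 0.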
# [2] = system: BT-549; assay: as above
# Outline: as §1
# [3] = system: CAL-85-1; assay: as above
# Outline: as §1
# [4] = system: HCC1599; assay: as above
# Outline: as §1
# [5] = system: CAL-148; assay: as above
# Outline: as §1
# [6] = system: BT-474; assay: as above
# Outline: as §1
# [7] = system: MDA-MB-468; assay: as above
# Outline: as §1
# [8] = system: MDA-MB-436; assay: as above
# Outline: as §1
# [9] = system: HCC1143; assay: as above
# Outline: as §1
# [10] = system: CAL-120; assay: as above
# Outline: as §1
# [11] = system: CAL-51; assay: as above
# Outline: as §1
# [12] = system: MDA-MB-453; assay: as above
# Outline: as §1
# [13] = system: HCC1937; assay: as above
# Outline: as §1
# [14] = system: DU-4475; assay: as above
# Outline: as §1
# [15] = system: MCF-10A; assay: as above
# Outline: as §1
# [16] = system: MFM-223; assay: as above
# Outline: as §1
# [17] = system: Hs578T; assay: as above
# Outline: as §1
# [18] = system: MDA-MB-231; assay: normalised response (% of control), CellTiter-Glo; higher = more viable cells (100 = DMSO, 0 = benzethonium chloride kill control)
# Procedure: (§2)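 DSRT, 72 h incubation, CellTox Green / CellTiter-Glo readout. Signal is normalised to DMSO and benzethonium chloride controls. Value is the normalised response at the highest dose.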
# [19] = system: BT-549; assay: as above
# Procedure: as §2
# [20] = system: CAL-85-1; assay: as above
# Procedure: as §2
# [21] = system: HCC1599; assay: as above
# Procedure: as §2
# [22] = system: CAL-148; assay: as above
# Procedure: as §2
# [23] = system: BT-474; assay: as above
# Procedure: as §2
# [24] = system: SK-BR-3; assay: as above
# Procedure: as §2
# [25] = system: HDQ-P1; assay: as above
# Procedure: as §2
# [26] = system: MDA-MB-468; assay: as above
# Procedure: as §2
# [27] = system: MDA-MB-436; assay: as above
# Procedure: as §2
# [28] = system: HCC1143; assay: as above
# Procedure: as §2
# [29] = system: CAL-120; assay: as above
# Procedure: as §2
# [30] = system: CAL-51; assay: as above
# Procedure: as §2
# [31] = system: MDA-MB-453; assay: as above
# Procedure: as §2
# [32] = system: HCC1937; assay: as above
# Procedure: as §2
# [33] = system: DU-4475; assay: as above
# Procedure: as §2
# [34] = system: MCF-10A; assay: as above
# Procedure: as §2
# [35] = system: MFM-223; assay: as above
# Procedure: as §2
# [36] = system: Hs578T; assay: as above
# Procedure: as §2
# [37] = system: HDQ-P1; assay: normalised response (% of control), CellTox Green; higher = less cell death (100 = DMSO, 0 = benzethonium chloride kill control)
# Outline: as §1
Structure (SMILES),normalised response [1],normalised response [2],normalised response [3],normalised response [4],normalised response [5],normalised response [6],normalised response [7],normalised response [8],normalised response [9],normalised response [10],normalised response [11],normalised response [12],normalised response [13],normalised response [14],normalised response [15],normalised response [16],normalised response [17],normalised response [18],normalised response [19],normalised response [20],normalised response [21],normalised response [22],normalised response [23],normalised response [24],normalised response [25],normalised response [26],normalised response [27],normalised response [28],normalised response [29],normalised response [30],normalised response [31],normalised response [32],normalised response [33],normalised response [34],normalised response [35],normalised response [36],normalised response [37]
CC(=O)O[C@]1(C(C)=O)CC[C@H]2[C@@H]3C=C(C)C4=CC(=O)CC[C@]4(C)[C@H]3CC[C@@]21C [Megestrol acetate] (10000 nM),123%,105%,109%,95.9%,99.9%,99.2%,176%,88.3%,112%,96.6%,111%,99.8%,84%,97.6%,102%,103%,58.5%,124%,107%,97.7%,99.5%,88.7%,111%,89%,102%,95.9%,96%,102%,90%,123%,91.3%,98%,93.9%,135%,91.7%,94.5%,
CCN1CCN(c2ccc(Nc3cc(N(C)C(=O)Nc4c(Cl)c(OC)cc(OC)c4Cl)ncn3)cc2)CC1 [NVP-BGJ398] (1000 nM),,84.6%,119%,100%,98.1%,102%,71.5%,102%,105%,89.3%,105%,81.6%,52.5%,97.7%,73.2%,94.1%,115%,96.2%,75.9%,101%,98.7%,96.5%,91.3%,97.7%,99.8%,97.2%,92.7%,93.6%,71.1%,128%,105%,95.7%,100%,101%,50.3%,86.2%,101%
O=C(c1ccc(C(=O)N2CCC(N3CCCC3)CC2)c(Nc2ccccc2)c1)N1CCC(N2CCCC2)CC1 [UNC1215] (30000 nM),88.8%,86.1%,116%,94.3%,101%,102%,135%,93.4%,,98.6%,106%,102%,98.5%,98.2%,82.8%,105%,84.2%,93.9%,98%,92.2%,96%,93.8%,101%,94%,97.7%,95%,93.2%,96.5%,107%,99.6%,99.8%,94.2%,94.8%,95.4%,95.1%,99.6%,50.2%
